Assays:
GST-Q81 beads = assay: Chemical absorption assay, Q81; type: binding; conditions: 25 μM of each (FIG. 6B)
Procedure: FIG. 6B is a graph of the percent of binding of various compounds to amyloid-like Q81 aggregates measured using a chemical absorption assay. The anti-amyloid compounds minocycline, Chrysamine G, Rolitetracycline, iota carrageenan, dextran 500 (dextran), or Congo red (25 μM of each) were pre-absorbed with Q81 GST recombinant protein and the percentage absorbance of the compound remaining in the supernatant after absorption with GST-Q81 beads is plotted on the y-axis.
To determine if Congo red and its derivatives directly bind to expanded polyglutamine aggregates, we designed a chemical absorption assay. This assay measures the remaining Congo red in the supernatant after incubating the supernatant with GST-tagged polyglutamine beads, and removing the GST-polyglutamine beads by centrifugation. This assay was carried out as follows. Recombinant protein GST-Q19, GST-Q62, and GST-Q81 (containing 19, 62, and 81 polyglutamines, respectively) was purified from E. coli by glutathione beads. After several washes with PBS containing protease inhibitors, the beads were allowed to settle to the bottom of the tube at 24° C. for 10 minutes. The polyglutamine-bound beads were aliquoted and diluted with two volumes of 10 μg/ml of Congo red in PBS. The beads were mixed and centrifuged at 15,000 rpm for 2 minutes and the supernatant was removed and diluted 1:100. The percentage absorbance of the compound remaining in the supernatant after absorption with the GST-polyQ beads was then detected. In addition, Congo red- or PBS-only treated polyglutamine polypeptide bead pellets were washed three times with 100 volumes of PBS and then the protein was separated by 12% polyacrylamide gels and immunoblotted as mentioned above. Some blots were used for immunostaining with anti-polyglutamine antibody (EM48). Other blots were left unstained to visualize the red color of Congo red that entered the gel along with the polyglutamine protein.
Binding of the above-identified compounds to amyloid-like Q81 aggregates was also assessed by a chemical absorption assay. The compounds indicated in FIG. 19 (25 μM of each) were pre-absorbed with a Q81 GST recombinant protein and the percentage absorbance of the compound remaining in the supernatant after absorption with GST-Q81 beads was then detected.

HSP40 and HSP70 = assay: Expression of chaperone proteins; type: cell-based; conditions: Q79-expressing (HA-Q79) HeLa cells
Text: We examined whether the destabilizing effect of Congo red on polyglutamine oligomers in HeLa cells expressing expanded polyglutamine repeats was caused indirectly through increased expression of endogenous chaperones (FIG. 5E). Lysates from Congo red-treated or control cells expressing expanded polyglutamine repeats (HA-[…]) were separated by SDS-PAGE and probed with anti-HSP70, anti-HSP40, and anti-HA antibodies to detect polyglutamine repeats.

HD transgenic mice (R62) = assay: Fasting glucose levels in blood; type: in vivo; conditions: 6 hours of fasting, intraperitoneal delivery
Text: FIG. 10B is a table showing the effect of intraperitoneal delivery of Congo red or PBS (vehicle) on fasting glucose levels in wild-type (WT) or HD transgenic mice.
In addition, the ability of Congo red to inhibit the formation as well as to disrupt preformed polyglutamine oligomers allowed us to examine the role of polyglutamine aggregates in neuronal dysfunction and degeneration characteristic of polyglutamine expansion diseases. In these studies, we used the animal model of Huntington's disease (R62), which expresses the truncated form of huntingtin with 139 CAG repeats Mangiarini et al. (supra). We took advantage of our finding that in addition to inhibiting polyglutamine oligomerization, Congo red also disrupts pre-formed oligomers, thus allowing assessment of the impact of Congo red on disease progression after formation of polyglutamine aggregates and the onset of symptoms. R62 transgenic mice and CBAxC57B1/6 F1 wild type littermates were obtained from Jackson Laboratories (Bar Harbor, Me.) at the age of five weeks. […]
R62 mice also develop severe diabetes due to the presence of polyglutamine aggregates in the pancreas. […] The levels of glucose in the blood after 6 hours of fasting were measured from the serum using the Accu-Check strip kit (Roche, Co.).

**Q.** For Nc1c(/N=N/c2ccc(-c3ccc(/N=N/c4cc(S(=O)(=O)O)c5ccccc5c4N)cc3)cc2)cc(S(=O)(=O)O)c2ccccc12 [Congo red, diphenyldiazo-bis-alpha-napthylaminesulfonate], which “binding to 81-repeat polyglutamine polypeptide” value (GST-Q81 beads) is on record?
**A.** binds to expanded polyglutamines

**Q.** And the “expression of HSP40 or HSP70” value (HSP40 and HSP70)?
**A.** did not induce the expression of HSP40 or HSP70

**Q.** And the “fasting glucose levels in blood” value (HD transgenic mice (R62))?
**A.** reduced the fasting glucose levels in blood

Reference: patent US20020155172A1, “Methods and compounds for decreasing cell toxicity or death” (priority 2000, published 2002)
